{"source": "patent US20090297534A1", "about": "“Catalytic Immunoglobulins BBK32 and Uses Therefor” (priority 2005, published 2009)", "key": {"[1]": {"tested_on": "IgM Yvo", "experiment": "Irreversible binding of biotinylated phosphonate by IgM Yvo", "details": "probe 500 μM; IgM Yvo 0.1 μM"}, "[2]": {"tested_on": "IgA (serum and salivary)", "experiment": "Phosphonate binding: irreversible adducts with IgA, SDS-electrophoresis, streptavidin-peroxidase", "details": "reducing SDS-gels after heating (100° C., 5 min)"}, "[3]": {"tested_on": "Monoclonal IgA (ID 2582)", "experiment": "Stoichiometry / active site titration of monoclonal IgA with phosphonate", "type": "biochemical, human", "details": "for x-intercept of residual activity (%) versus [inhibitor]/[IgA] plot: monoclonal IgA 2582 preincubated 18 h with 2.5-20 μM inhibitor, Glu-Ala-Arg-AMC 0.4 mM"}, "[4]": {"tested_on": "HIV neutralizing activity of CIVIG / IgA", "experiment": "Inhibition of immunoglobulin-mediated HIV neutralization by electrophilic peptide", "type": "cell-based, HIV-1", "details": "100 μM; for Effect on HIV neutralizing activity of serum IgA: 0.5 h preincubation, IgA 2 μg/ml", "protocol": "CIVIGm (FIG. 10A) and CIVGa (FIG. 10B) were incubated for 30 min with gp120 peptide-CRA (100 μM) or diluent, and the residual neutralization activity was determined as in FIG. 9 (CIVIGm, 10 μg/mL; CIVGa, 2 μg/mL).\nHIV-1 strain, 97ZA009; host cells, phytohemagglutinin-stimulated PBMCs. Abs were incubated with the virus for 24 h. Values are expressed as percent reduction of p24 concentrations in test cultures compared to cultures that received diluent instead of the Abs (means±s.d. of 4 replicates). […] IgA purified from human serum (2 μg/ml) was preincubated (0.5 h) with EP-421-433 (100 μM), control EP-VIP or diluent, and the residual HIV neutralizing activity measured as in panel A. Data are expressed relative p24 levels observed in the absence of antibody. […] HIV was preincubated with the salivary or serum IgA for 1 h and the neutralizing activity measured as in FIG. 24A.\nCovalently reactive analogs (CRAs) of polypeptides have been developed as probes for antibodies. CRAs contain an electrophilic phosphonate analog capable of irreversible binding to nucleophiles present in antibody combining sites. The covalent reaction occurs in coordination with noncovalent antigen-antibody binding, ensuring specificity, and permitting the use of peptidyl CRAs for irreversible and specific binding to the antibodies. One such peptidyl CRA reported is an analog of gp120 residues 421-433 containing the phosphonate at its C terminus (gp120 peptide CRA). This region of gp120 is a component of the superantigenic site of this protein. Neutralization of HIV-1 by CIVIGa and CIVIGm was inhibited by the gp120 peptide CRA, confirming that recognition of the gp120 superantigenic site is required for the neutralizing activity. FIGS. 10A-10B illustrate these findings. CIVIGm and CIVGa were preincubated with the gp120 peptide-CRA or diluent, and the residual neutralization activity was determined as in FIG. 9. An irrelevant peptide CRA, VIP-CRA was employed as the control reagent to rule out nonspecific effects. […]"}, "[5]": {"tested_on": "IgA catalyzed gp120 cleavage (salivary IgA, serum IgA)", "experiment": "Inhibition of IgA catalyzed gp120 cleavage", "type": "biochemical, human", "protocol": "Values are means of duplicates.\nFIG. 20B depicts streptavidin-peroxidase stained SDS-gel blots (reducing conditions) showing Bt-gp120 (0.1 μM) incubated in diluent (lane 1) and monoclonal IgA (80 μg/ml, from multiple myeloma subject 2582) in the absence (lane 2) or presence of Glu-Ala-Arg-AMC (lane 3; 0.2 mM). […] FIG. 20C is EP-hapten 3 which is the non-biotinylated version of EP-hapten 1.\nIn some experiments, the cleavage rate was expressed as the intensity of the 55 kD product band (in AVU, corrected for background intensity observed in reaction mixtures of gp120 incubated in diluent instead of Ab). For cleavage site determination, gp120 was incubated with IgA (pooled from subject codes 2288-2291), the IgA was removed by binding to an anti-human IgA column as described above, and the unbound fraction was lyophilized and redissolved in SDS-electrophoresis buffer containing 2-mercaptoethanol. The gp120 fragments in PVDF blots of SDS-gels were stained with Coomassie blue and subjected to N-terminal sequencing as described previously (33)."}, "[6]": {"tested_on": "IgA", "type": "biochemical, human"}, "[7]": {"details": "10 μM, bleed 2, conditions as FIG. 22B"}, "[8]": {"details": "increasing concentrations 10-100 μM"}}, "note": "Where no end group is shown, it is not given here.", "data": [{"compound": "N=C(N)c1ccc(C(NC(=O)CCCCCNC(=O)CCCC[C@@H]2SC[C@@H]3NC(=O)N[C@@H]32)P(=O)(O)O)cc1", "note": "(stereo partly shown) [hapten 2, N-(6-biotinamidohexanoyl)amino(4-amidinophenyl)methanephosphonic acid]", "values": [{"measurement": "Irreversible reaction with IgM Yvo", "setting": "[1]", "value": "does not react appreciably"}, {"measurement": "Formation of irreversible adducts with IgA", "setting": "[2]", "value": "did not inhibit IgA-catalyzed gp120 cleavage or form adducts"}]}, {"compound": "N=C(N)c1ccc(C(NC(=O)OCc2ccccc2)P(=O)(Oc2ccccc2)Oc2ccccc2)cc1", "note": "(stereo not shown) [1b, diphenyl N-(benzyloxycarbonyl)amino(4-amidinophenyl)methanephosphonate]", "values": [{"measurement": "x-intercept of residual activity (%) versus [inhibitor]/[IgA] plot", "setting": "[3]", "value": 2.5}, {"measurement": "x-intercept of residual activity (%) versus [inhibitor]/[IgA] plot", "setting": "[3]; listed as EP-hapten 3", "value": 2.4}, {"measurement": "Inhibitor needed for complete inhibition of 1 mole IgA", "setting": "[3]; monoclonal IgA, Glu-Ala-Arg-AMC substrate", "value": 2.4, "unit": "mol"}]}, {"compound": "EP-VIP: VIP containing the amidinophosphonate at Lys20 side chain; control electrophilic peptide", "values": [{"measurement": "Effect on HIV neutralizing activity of serum IgA", "setting": "[4]", "value": "minimally influenced"}, {"measurement": "% inhibition of gp120 cleavage by IgAs of SP subjects 2097 and 2098", "setting": "[5]; equivalent concentration (10 μM) of control probe", "value": "< 15", "unit": "%"}]}, {"compound": "N=C(N)c1ccc(C(NC(=O)CCCCCNC(=O)CCCC[C@@H]2SC[C@@H]3NC(=O)N[C@@H]32)P(=O)(Oc2ccccc2)Oc2ccccc2)cc1", "note": "(stereo partly shown) [1a, diphenyl N-(6-biotinamidohexanoyl)amino(4-amidinophenyl)methanephosphonate]", "values": [{"measurement": "IC50", "setting": "[6]", "value": "37 ± 1", "unit": "µM"}, {"measurement": "Inhibition of catalytic activity of serum IgA", "setting": "[6]", "value": "inhibited the catalytic activity"}, {"measurement": "Irreversible reaction with IgM Yvo", "setting": "[1]", "value": "reacts irreversibly"}, {"measurement": "Formation of irreversible adducts with IgA", "setting": "[2]", "value": "dominant ˜60 kD 1a-adduct of the heavy chain"}, {"measurement": "Formation of irreversible adducts with IgA", "setting": "[2]; listed as EP-hapten 1", "value": "formed adducts"}]}, {"compound": "EP-421-433: gp120 residues 421-431 with the amidinophosphonate mimetic of residues 432-433 at the C-terminus (KQIINMWQEVG; not fully specified (C-terminus); printed as Lys-Gln-Ile-Ile-Asn-Met-Trp-Gln-Glu-Val-Gly)", "values": [{"measurement": "Inhibition of HIV-1 neutralization by CIVIGa and CIVIGm", "setting": "[4]; 30 min preincubation, CIVIGm 10 μg/mL, CIVGa 2 μg/mL", "value": "inhibited"}, {"measurement": "Effect on HIV neutralizing activity of serum IgA", "setting": "[4]", "value": "inhibited the neutralizing activity"}, {"measurement": "% inhibition of gp120 cleavage by IgA of SP subject 2097", "setting": "[5]; [7]", "value": "89±6", "unit": "%"}, {"measurement": "% inhibition of gp120 cleavage by IgA of SP subject 2098", "setting": "[5]; [7]", "value": "94±12", "unit": "%"}, {"measurement": "Inhibition of cleavage of Bt-gp120 by salivary IgA", "setting": "[5]; [8]", "value": "21-85%"}, {"measurement": "Inhibition of cleavage of Bt-gp120 by serum IgA", "setting": "[5]; [8]", "value": "41-91%"}, {"measurement": "Formation of irreversible adducts with IgA", "setting": "[2]", "value": "superior irreversible binding"}]}]}
